Laboratory results from PMC12090182, “Repurposing of the RIPK1-Selective Benzo[1,4]oxazepin-4-one Scaffold for the Development of a Type III LIMK1/2 Inhibitor” (ACS Chemical Biology, 2025).
Read-outs that look alike come from different tables or passages of the source.

Tested on: U2OS cells
Format: cell-based
How it was run: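 HEK293T and U2OS cells (DMEM) and MRC-9 fibroblasts (EMEM) exposed to compounds at 1 and 10 μM. Live-cell confocal imaging of cell shape and fluorescence before and at 12, 24 and 48 h. Normalized to 0.1% DMSO; biological duplicates with SEM.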

[1] = 1 µM, 0 h after treatment, U2OS, biological replicate 1
[2] = 1 µM, 0 h after treatment, U2OS, biological replicate 2
[3] = 1 µM, 12 h after treatment, U2OS, biological replicate 1
[4] = 1 µM, 12 h after treatment, U2OS, biological replicate 2
[5] = 1 µM, 24 h after treatment, U2OS, biological replicate 1
[6] = 1 µM, 24 h after treatment, U2OS, biological replicate 2
[7] = 1 µM, 48 h after treatment, U2OS, biological replicate 1
[8] = 1 µM, 48 h after treatment, U2OS, biological replicate 2
[9] = 10 µM, 0 h after treatment, U2OS, biological replicate 1
[10] = 10 µM, 0 h after treatment, U2OS, biological replicate 2
[11] = 10 µM, 12 h after treatment, U2OS, biological replicate 1
[12] = 10 µM, 12 h after treatment, U2OS, biological replicate 2
[13] = 10 µM, 24 h after treatment, U2OS, biological replicate 1
[14] = 10 µM, 24 h after treatment, U2OS, biological replicate 2
[15] = 10 µM, 48 h after treatment, U2OS, biological replicate 1
[16] = 10 µM, 48 h after treatment, U2OS, biological replicate 2

## CN1C(=O)[C@@H](N2CCc3c(C(N)=O)nn(Cc4ccccc4)c3C2=O)COc2ccccc21 [Compound 11]
human, 0 h, 1 µM
  Population apoptotic cell (%): 66.67%

## CC(C)C(=O)Nc1ncc(C(=O)NCCN(Cc2ccccc2)C(=O)c2ccc(S(=O)(=O)Nc3ccccc3)cc2)s1 [TH470]
[1]
  Cell count normalized to cells treated with DMSO control: 0.966
  Cell count per well: 201
  Population Fragmented Nuclei (%): 47.72%
  Population Healthy Nuclei (%): 44.16%
  Population Pyknosed Nuclei (%): 8.12%
  Population apoptotic cell (%): 87.50%
  Population cell that influence microtubule strucutre (%): 6.90%
  Population with increased mitochondrial mass (%): 2.30%
  Population with membrane disruption (%): 9.20%
[2]
  Cell count normalized to cells treated with DMSO control: 1.038
  Cell count per well: 89
  Population Fragmented Nuclei (%): 15.73%
  Population Healthy Nuclei (%): 79.78%
  Population Pyknosed Nuclei (%): 4.49%
  Population apoptotic cell (%): 50.00%
  Population cell that influence microtubule strucutre (%): 5.63%
  Population with increased mitochondrial mass (%): 4.23%
  Population with membrane disruption (%): 4.23%
[3]
  Cell count normalized to cells treated with DMSO control: 0.8658
  Cell count per well: 229
  Population Fragmented Nuclei (%): 36.24%
  Population Healthy Nuclei (%): 55.96%
  Population Pyknosed Nuclei (%): 7.80%
  Population apoptotic cell (%): 76.47%
  Population cell that influence microtubule strucutre (%): 1.64%
  Population with increased mitochondrial mass (%): 4.10%
  Population with membrane disruption (%): 4.10%
[4]
  Cell count normalized to cells treated with DMSO control: 1.074
  Cell count per well: 127
  Population Fragmented Nuclei (%): 17.89%
  Population Healthy Nuclei (%): 73.98%
  Population Pyknosed Nuclei (%): 8.13%
  Population apoptotic cell (%): 100.00%
  Population cell that influence microtubule strucutre (%): 4.40%
  Population with increased mitochondrial mass (%): 4.40%
  Population with membrane disruption (%): 12.09%
[5]
  Cell count normalized to cells treated with DMSO control: 0.8405
  Cell count per well: 262
  Population Fragmented Nuclei (%): 31.54%
  Population Healthy Nuclei (%): 59.62%
  Population Pyknosed Nuclei (%): 8.85%
  Population apoptotic cell (%): 73.91%
  Population cell that influence microtubule strucutre (%): 2.58%
  Population with increased mitochondrial mass (%): 4.52%
  Population with membrane disruption (%): 5.16%
[6]
  Cell count normalized to cells treated with DMSO control: 1.041
  Cell count per well: 148
  Population Fragmented Nuclei (%): 19.59%
  Population Healthy Nuclei (%): 67.57%
  Population Pyknosed Nuclei (%): 12.84%
  Population apoptotic cell (%): 94.74%
  Population cell that influence microtubule strucutre (%): 3.00%
  Population with increased mitochondrial mass (%): 4.00%
  Population with membrane disruption (%): 4.00%
[7]
  Cell count normalized to cells treated with DMSO control: 0.7931
  Cell count per well: 353
  Population Fragmented Nuclei (%): 26.16%
  Population Healthy Nuclei (%): 66.57%
  Population Pyknosed Nuclei (%): 7.27%
  Population apoptotic cell (%): 80.00%
  Population cell that influence microtubule strucutre (%): 3.06%
  Population with increased mitochondrial mass (%): 2.62%
  Population with membrane disruption (%): 3.93%
[8]
  Cell count normalized to cells treated with DMSO control: 1.07
  Cell count per well: 221
  Population Fragmented Nuclei (%): 17.59%
  Population Healthy Nuclei (%): 71.30%
  Population Pyknosed Nuclei (%): 11.11%
  Population apoptotic cell (%): 87.50%
  Population cell that influence microtubule strucutre (%): 5.84%
  Population with increased mitochondrial mass (%): 3.90%
  Population with membrane disruption (%): 5.84%
[9]
  Cell count normalized to cells treated with DMSO control: 1.105
  Cell count per well: 230
  Population Fragmented Nuclei (%): 38.01%
  Population Healthy Nuclei (%): 52.49%
  Population Pyknosed Nuclei (%): 9.50%
  Population apoptotic cell (%): 85.71%
  Population cell that influence microtubule strucutre (%): 0.86%
  Population with increased mitochondrial mass (%): 0.86%
  Population with membrane disruption (%): 3.45%
[10]
  Cell count normalized to cells treated with DMSO control: 0.875
  Cell count per well: 75
  Population Fragmented Nuclei (%): 10.67%
  Population Healthy Nuclei (%): 82.67%
  Population Pyknosed Nuclei (%): 6.67%
  Population apoptotic cell (%): 80.00%
  Population cell that influence microtubule strucutre (%): 3.23%
  Population with increased mitochondrial mass (%): 3.23%
  Population with membrane disruption (%): 6.45%
[11]
  Cell count normalized to cells treated with DMSO control: 0.9149
  Cell count per well: 242
  Population Fragmented Nuclei (%): 26.79%
  Population Healthy Nuclei (%): 56.70%
  Population Pyknosed Nuclei (%): 16.52%
  Population apoptotic cell (%): 64.86%
  Population cell that influence microtubule strucutre (%): 62.20%
  Population with increased mitochondrial mass (%): 41.73%
  Population with membrane disruption (%): 55.91%
[12]
  Cell count normalized to cells treated with DMSO control: 0.8031
  Cell count per well: 95
  Population Fragmented Nuclei (%): 10.75%
  Population Healthy Nuclei (%): 74.19%
  Population Pyknosed Nuclei (%): 15.05%
  Population apoptotic cell (%): 85.71%
  Population cell that influence microtubule strucutre (%): 39.13%
  Population with increased mitochondrial mass (%): 52.17%
  Population with membrane disruption (%): 28.99%
[13]
  Cell count normalized to cells treated with DMSO control: 0.8277
  Cell count per well: 258
  Population Fragmented Nuclei (%): 25.41%
  Population Healthy Nuclei (%): 59.43%
  Population Pyknosed Nuclei (%): 15.16%
  Population apoptotic cell (%): 75.68%
  Population cell that influence microtubule strucutre (%): 25.52%
  Population with increased mitochondrial mass (%): 33.10%
  Population with membrane disruption (%): 26.90%
[14]
  Cell count normalized to cells treated with DMSO control: 0.7946
  Cell count per well: 113
  Population Fragmented Nuclei (%): 10.81%
  Population Healthy Nuclei (%): 73.87%
  Population Pyknosed Nuclei (%): 15.32%
  Population apoptotic cell (%): 70.59%
  Population cell that influence microtubule strucutre (%): 19.51%
  Population with increased mitochondrial mass (%): 31.71%
  Population with membrane disruption (%): 9.76%
[15]
  Cell count normalized to cells treated with DMSO control: 0.7572
  Cell count per well: 337
  Population Fragmented Nuclei (%): 22.70%
  Population Healthy Nuclei (%): 63.19%
  Population Pyknosed Nuclei (%): 14.11%
  Population apoptotic cell (%): 89.13%
  Population cell that influence microtubule strucutre (%): 11.65%
  Population with increased mitochondrial mass (%): 14.56%
  Population with membrane disruption (%): 12.62%
[16]
  Cell count normalized to cells treated with DMSO control: 0.76
  Cell count per well: 157
  Population Fragmented Nuclei (%): 10.00%
  Population Healthy Nuclei (%): 69.33%
  Population Pyknosed Nuclei (%): 20.67%
  Population apoptotic cell (%): 87.10%
  Population cell that influence microtubule strucutre (%): 14.42%
  Population with increased mitochondrial mass (%): 14.42%
  Population with membrane disruption (%): 11.54%
